US9902728B2, “Pyrrolo and pyrazolopyrimidines as ubiquitin-specific protease 7 inhibitors” (Forma Therapeutics, Inc., priority 2014, dated 2018)

target: T1, USP7 (Homo sapiens, UniProt Q93009); experiment: USP7 Assay A (Ubitquin-Rhodamine 110 Assay); format: biochemical; conditions: USP7_IC50, USP7 activity in USP7 assay A and B (table does not say which assay per compound)
T1 construct: USP7, construct USP7 (208-1102) 6*His, Viva Biotech; 6xHis (C); purchased Viva Biotech
In short: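 Enzyme and compound sat together for 30 min before Ub-Rh110 was added, in buffer of 20 mM Tris-HCl (pH 8.0), 1 mM GSH, 0.03% BGG and 0.01% Triton X-100.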

T1 sequence (Q93009 208-1102): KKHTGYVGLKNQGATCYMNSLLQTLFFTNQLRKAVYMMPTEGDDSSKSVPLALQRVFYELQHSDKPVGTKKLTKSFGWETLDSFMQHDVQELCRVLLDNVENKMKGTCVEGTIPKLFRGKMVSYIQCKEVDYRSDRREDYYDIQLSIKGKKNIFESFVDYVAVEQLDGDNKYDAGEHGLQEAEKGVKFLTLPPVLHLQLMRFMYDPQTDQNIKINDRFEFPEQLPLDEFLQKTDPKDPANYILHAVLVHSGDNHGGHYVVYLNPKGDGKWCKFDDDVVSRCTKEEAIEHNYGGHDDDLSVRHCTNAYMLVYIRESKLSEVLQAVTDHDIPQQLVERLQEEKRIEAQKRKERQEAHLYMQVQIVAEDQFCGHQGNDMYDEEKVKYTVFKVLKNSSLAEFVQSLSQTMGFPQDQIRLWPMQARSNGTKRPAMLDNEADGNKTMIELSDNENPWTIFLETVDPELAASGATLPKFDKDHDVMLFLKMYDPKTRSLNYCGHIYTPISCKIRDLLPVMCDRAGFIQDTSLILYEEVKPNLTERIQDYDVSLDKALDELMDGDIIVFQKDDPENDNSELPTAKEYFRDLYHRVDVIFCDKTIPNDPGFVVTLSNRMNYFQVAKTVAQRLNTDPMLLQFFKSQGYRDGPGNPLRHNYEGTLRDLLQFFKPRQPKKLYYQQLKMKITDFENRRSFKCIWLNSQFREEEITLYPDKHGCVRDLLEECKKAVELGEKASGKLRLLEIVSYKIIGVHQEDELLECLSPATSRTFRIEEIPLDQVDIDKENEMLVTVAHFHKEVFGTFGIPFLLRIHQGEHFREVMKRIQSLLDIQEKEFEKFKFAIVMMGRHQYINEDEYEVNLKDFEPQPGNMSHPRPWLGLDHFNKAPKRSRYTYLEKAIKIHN

| Structure (SMILES) | IC50 [nM] |
| --- | --- |
| CN1C2CCC1CN(c1cccc(-n3ncc4c(=O)n(CC5(O)CCN(C(=O)C6(C)CC6)CC5)cnc43)c1)C2 [Compound I-1644] | < 200 |
| CC1(C(=O)N2CCC(O)(Cn3cnc4c(cnn4-c4cccc(N5CC6CC(C5)O6)c4)c3=O)CC2)CC1 [Compound I-1692] | < 200 |

same assay, conditions: USP7 activity in USP7 assay A and B (table does not say which assay per compound); read-out: USP7_IC50

| Structure (SMILES) | IC50 [nM] |
| --- | --- |
| CN1CCC2(CC1)CCN(c1ccc(-n3ncc4c(=O)n(CC5(O)CCN(C(=O)c6ccc(F)cc6)CC5)cnc43)cc1)CC2 [Compound I-1621] | < 200 |
| CN1CCC2(CC1)CCN(c1ccc(-n3ncc4c(=O)n(CC5(O)CCN(C(=O)C6CC6)CC5)cnc43)cc1)CC2 [Compound I-1622] | < 200 |
| Cc1cnn(-c2ccc(-n3ncc4c(=O)n(CC5(O)CCN(C(=O)c6ccc(F)cc6)CC5)cnc43)cc2)c1 [Compound I-1623] | 1000 to 10000 |
| CC(=O)N1CCC(O)(Cn2cnc3c(cnn3-c3ccc(Cl)cc3)c2=O)CC1 [Compound I-1625] | > 10000 |
| CC1(C(=O)N2CCC(O)(Cn3cnc4c(cnn4-c4ccc(Cl)cc4)c3=O)CC2)CC1 [Compound I-1632] | 1000 to 10000 |
| CC1(C(=O)N2CCC(O)(Cn3cnc4c(cnn4-c4ccc(N5CC(N6CCOCC6)C5)cc4)c3=O)CC2)CC1 [Compound I-1636] | 200 to 1000 |
| CC1(C(=O)N2CCC(O)(Cn3cnc4c(cnn4-c4cccc(N5CC(N6CCOCC6)C5)c4)c3=O)CC2)CC1 [Compound I-1637] | 200 to 1000 |
| C[C@@H]1CN(c2ccc(-n3ncc4c(=O)n(CC5(O)CCN(C(=O)C6(C)CC6)CC5)cnc43)cc2)C[C@H](C)N1C [Compound I-1638] | < 200 |
| C[C@H]1CN(c2ccc(-n3ncc4c(=O)n(CC5(O)CCN(C(=O)C6(C)CC6)CC5)cnc43)cc2)CCN1C [Compound I-1639] | < 200 |
| C[C@@H]1CN(c2ccc(-n3ncc4c(=O)n(CC5(O)CCN(C(=O)C6(C)CC6)CC5)cnc43)cc2)CCN1C [Compound I-1640] | < 200 |
| CN1CCN(c2ccc(-n3ncc4c(=O)n(CC5(O)CCN(C(=O)C6(C)CC6)CC5)cnc43)cc2)CC1 [Compound I-1641] | < 200 |
| CC1(C(=O)N2CCC(O)(Cn3cnc4c(cnn4-c4ccc(N5CCC(C6COC6)CC5)cc4)c3=O)CC2)CC1 [Compound I-1642] | 200 to 1000 |
| CC1(C(=O)N2CCC(O)(Cn3cnc4c(cnn4-c4ccc(N5CC6CC(C5)O6)cc4)c3=O)CC2)CC1 [Compound I-1643] | 200 to 1000 |
| CC1CN(c2cccc(-n3ncc4c(=O)n(CC5(O)CCN(C(=O)C6(C)CC6)CC5)cnc43)c2)CC(C)N1C (stereo not drawn) [Compound I-1645] | < 200 |
| C[C@H]1CN(c2cccc(-n3ncc4c(=O)n(CC5(O)CCN(C(=O)C6(C)CC6)CC5)cnc43)c2)CCN1C [Compound I-1646] | < 200 |
| O=C(c1ccc(F)cc1)N1CCC(O)(Cn2cnc3c(cnn3-c3ccc(N4CCCn5nccc54)cc3)c2=O)CC1 [Compound I-1654] | 200 to 1000 |
| O=C(C1CC1)N1CCC(O)(Cn2cnc3c(cnn3-c3ccc(N4CCC(O)C4)cc3)c2=O)CC1 (stereo not drawn) [Compound I-1655] | 1000 to 10000 |
| CC1(O)CCN(c2ccc(-n3ncc4c(=O)n(CC5(O)CCN(C(=O)C6CC6)CC5)cnc43)cc2)C1 (stereo not drawn) [Compound I-1657] | 1000 to 10000 |
| Cn1cc(-c2ccc(-n3ncc4c(=O)n(CC5(O)CCN(C(=O)c6ccc(F)cc6)CC5)cnc43)cc2)cn1 [Compound I-1672] | 1000 to 10000 |

| Structure (SMILES) | IC50 [nM] |
| --- | --- |
| O=C(C1CC1)N1CCC(O)(Cn2cnc3c(cnn3-c3ccc(-c4cnn5c4COCC5)cc3)c2=O)CC1 [Compound I-1673] | 1000 to 10000 |
| CC1(C(=O)N2CCC(O)(Cn3cnc4c(cnn4-c4ccc(N5CC(C(C)(C)O)C5)cc4)c3=O)CC2)CC1 [Compound I-1674] | 200 to 1000 |
| CC1(C(=O)N2CCC(O)(Cn3cnc4c(cnn4-c4cccc(N5CCC(F)(F)CC5)c4)c3=O)CC2)CC1 [Compound I-1675] | < 200 |
| CC1(C(=O)N2CCC(O)(Cn3cnc4c(cnn4-c4cccc(N5CC(C(C)(C)O)C5)c4)c3=O)CC2)CC1 [Compound I-1676] | < 200 |
| CC1(C(=O)N2CCC(O)(Cn3cnc4c(cnn4-c4ccc(N5CC(O)C5)cc4)c3=O)CC2)CC1 [Compound I-1677] | 200 to 1000 |
| CC1(C(=O)N2CCC(O)(Cn3cnc4c(cnn4-c4cccc(N5CC(O)C5)c4)c3=O)CC2)CC1 [Compound I-1678] | 200 to 1000 |
| CC1(C(=O)N2CCC(O)(Cn3cnc4c(cnn4-c4ccc(N5CC(F)C5)cc4)c3=O)CC2)CC1 [Compound I-1679] | 200 to 1000 |
| CC1(C(=O)N2CCC(O)(Cn3cnc4c(cnn4-c4cccc(N5CC(F)C5)c4)c3=O)CC2)CC1 [Compound I-1680] | 200 to 1000 |
| CN1CC2CCC(C1)N2c1ccc(C(=O)N2CCC(O)(Cn3cnc4c(cnn4-c4ccc(F)cc4)c3=O)CC2)cc1 [Compound I-1681] | 1000 to 10000 |
| O=C(c1ccc(N2CCN3CCC2CC3)cc1)N1CCC(O)(Cn2cnc3c(cnn3-c3ccc(F)cc3)c2=O)CC1 [Compound I-1682] | 1000 to 10000 |
| O=C(c1ccc(N2CCCN3CCCC3C2)cc1)N1CCC(O)(Cn2cnc3c(cnn3-c3ccc(F)cc3)c2=O)CC1 (stereo not drawn) [Compound I-1683] | 1000 to 10000 |
| O=C(c1cnc(C2CC2)o1)N1CCC(O)(Cn2cnc3c(cnn3-c3ccc(-n4cc(CO)cn4)cc3)c2=O)CC1 [Compound I-1684] | < 200 |
| O=C(c1cnc(C2CC2)o1)N1CCC(O)(Cn2cnc3c(cnn3-c3ccc(-n4cc(C(F)(F)F)cn4)cc3)c2=O)CC1 [Compound I-1685] | < 200 |
| O=C(c1cnc(C2CC2)o1)N1CCC(O)(Cn2cnc3c(cnn3-c3ccc(-n4cc(Cl)cn4)cc3)c2=O)CC1 [Compound I-1686] | < 200 |
| Cc1ncc(C(=O)N2CCC(O)(Cn3cnc4c(cnn4-c4ccc(-n5cc(CO)cn5)cc4)c3=O)CC2)o1 [Compound I-1687] | < 200 |
| Cc1ncc(C(=O)N2CCC(O)(Cn3cnc4c(cnn4-c4ccc(-n5cc(C(F)(F)F)cn5)cc4)c3=O)CC2)o1 [Compound I-1688] | < 200 |
| C[C@@H]1CN(c2cccc(-n3ncc4c(=O)n(CC5(O)CCN(C(=O)C6(C)CC6)CC5)cnc43)c2)CCN1C [Compound I-1689] | < 200 |
| CN1CCN(c2cccc(-n3ncc4c(=O)n(CC5(O)CCN(C(=O)C6(C)CC6)CC5)cnc43)c2)CC1 [Compound I-1690] | < 200 |
| CC1(C(=O)N2CCC(O)(Cn3cnc4c(cnn4-c4cccc(N5CCC(C6COC6)CC5)c4)c3=O)CC2)CC1 [Compound I-1691] | 200 to 1000 |

| Structure (SMILES) | IC50 [nM] |
| --- | --- |
| CN1CCN(c2ccc(-n3ncc4c(=O)n(CC5(O)CCN(C(=O)C6(C)CC6)CC5)cnc43)cc2)CC1C(F)F (stereo not drawn) [Compound I-1693] | 200 to 1000 |
| CN1CCN(c2cccc(-n3ncc4c(=O)n(CC5(O)CCN(C(=O)C6(C)CC6)CC5)cnc43)c2)CC1C(F)F (stereo not drawn) [Compound I-1694] | < 200 |
| CC1(C(=O)N2CCC(O)(Cn3cnc4c(cnn4-c4cccc(N5CCN(C6COC6)CC5)c4)c3=O)CC2)CC1 [Compound I-1700] | 200 to 1000 |
| CC1(C(=O)N2CCC(O)(Cn3cnc4c(cnn4-c4ccc(N5CCN(C6COC6)CC5)cc4)c3=O)CC2)CC1 [Compound I-1701] | 200 to 1000 |
| CC(=O)N1C[C@@H]2C[C@H]1CN2c1cccc(-n2ncc3c(=O)n(CC4(O)CCN(C(=O)C5(C)CC5)CC4)cnc32)c1 [Compound I-1702] | 200 to 1000 |
| Cc1ccn(-c2ccc(-n3ncc4c(=O)n(CC5(O)CCN(C(=O)C6(C)CC6)CC5)cnc43)cc2)n1 [Compound I-1710] | 200 to 1000 |
| Cc1ccn(-c2ccc(-n3ncc4c(=O)n(CC5(O)CCN(C(=O)C6(C)COC6)CC5)cnc43)cc2)n1 [Compound I-1711] | 1000 to 10000 |
| CC1(C(=O)N2CCC(O)(Cn3cnc4c(cnn4-c4ccc(N5CCC6(CC5)COC6)cc4)c3=O)CC2)CC1 [Compound I-1716] | < 200 |
| CC1(C(=O)N2CCC(O)(Cn3cnc4c(cnn4-c4ccc(-n5cc(C(F)(F)F)cn5)cc4)c3=O)CC2)CCC1 [Compound I-1717] | < 200 |
| CC1(C(=O)N2CCC(O)(Cn3cnc4c(cnn4-c4ccc(N5CCC6(CC5)CC(F)(F)C6)cc4)c3=O)CC2)CCC1 [Compound I-1718] | < 200 |
| CC1(C(=O)N2CCC(O)(Cn3cnc4c(cnn4-c4ccc(-c5cnn(C6CCOCC6)c5)cc4)c3=O)CC2)CCC1 [Compound I-1719] | < 200 |
| CC1(C(=O)N2CCC(O)(Cn3cnc4c(cnn4-c4ccc(-c5cnn(C6CC6)c5)cc4)c3=O)CC2)CCC1 [Compound I-1720] | < 200 |
| CC1(C(=O)N2CCC(O)(Cn3cnc4c(cnn4-c4ccc(-c5cnn(C(F)F)c5)cc4)c3=O)CC2)CCC1 [Compound I-1721] | < 200 |
| CC1(C(=O)N2CCC(O)(Cn3cnc4c(cnn4-c4ccc(-c5cnn(C6CCOCC6)c5)cc4)c3=O)CC2)CC1 [Compound I-1722] | < 200 |
| CC1(C(=O)N2CCC(O)(Cn3cnc4c(cnn4-c4ccc(-c5cnn(C6CC6)c5)cc4)c3=O)CC2)CC1 [Compound I-1723] | 200 to 1000 |
| Cc1ccnc(-c2ccc(-n3ncc4c(=O)n(CC5(O)CCN(C(=O)C6CC6)CC5)cnc43)cc2)c1 [Compound I-1725] | 1000 to 10000 |
| Cc1ccc(-c2ccc(-n3ncc4c(=O)n(CC5(O)CCN(C(=O)C6CC6)CC5)cnc43)cc2)nc1 [Compound I-1726] | 200 to 1000 |
| O=C(C1CC1)N1CCC(O)(Cn2cnc3c(cnn3-c3ccc(N4CCCc5ncccc54)cc3)c2=O)CC1 [Compound I-1727] | 1000 to 10000 |
| CC1(C(=O)N2CCC(O)(Cn3cnc4c(cnn4-c4ccc(N5CCC(F)(F)CC5)cc4)c3=O)CC2)CC1 [Compound I-1728] | 200 to 1000 |

same assay, conditions: USP7 assay A and B (table does not say which assay per compound); read-out: USP7_IC50

| Structure (SMILES) | IC50 [nM] |
| --- | --- |
| O=C(c1cnc(C2CC2)o1)N1CCC(O)(Cn2cnc3c(cnn3-c3ccc(-c4ccccc4)cc3)c2=O)CC1 [Compound I-1659] | 200 to 1000 |
| CN(C)C(=O)N1CCC(O)(Cn2cnc3c(cnn3-c3cccc(-n4cc(Cl)cn4)c3)c2=O)CC1 [Compound I-1666] | > 10000 |
| O=C(C1CC1)N1CCC(O)(Cn2cnc3c(cnn3-c3ccc(OC4CCOCC4)cc3)c2=O)CC1 [Compound I-1667] | 1000 to 10000 |
| O=C(Nc1cccnc1)N1CCC(O)(Cn2cnc3c(cnn3-c3ccc(F)cc3)c2=O)CC1 [Compound I-1708] | 1000 to 10000 |
